Usually EC50 stands for the concentration at which the effect is half-maximal. Low readings indicate higher potency in that assay, high ones lower potency in that assay.

Experimental findings from ChEMBL document CHEMBL1141175, “Synthesis and antiviral evaluation of cis-substituted cyclohexenyl and cyclohexanyl nucleosides” (J Med Chem, 2005) are described below.

One assay concerns Coxsackievirus. Put plainly: Effective concentration required to inhibit Coxsackie B3 virus induced cytopathicity in vero cells. In kind it is functional, organism-based. On the technique in general: Damage to the host cells serves as the signal in cytopathic effect assays.
The test system of a further assay is Human alphaherpesvirus 1. The assay is described as follows: Effective concentration required to inhibit herpes simplex virus type 1 Kos strain induced cytopathicity in Hel cells. In kind it is functional, organism-based. Particulars: Human alphaherpesvirus 1, HEL.

In the assay on Coxsackievirus, `N#Cc1cc([N+](=O)[O-])ccc1Oc1ccc(Cl)c(Cl)c1` registered an EC50 of 5.84 µM.

Consider `Nc1nc2c(ncn2COC(CO)CO)c(=O)[nH]1` [GANCICLOVIR], for which, in the assay on Human alphaherpesvirus 1, the EC50 turned out to be 0.06 µM.

`Nc1ccn([C@H]2CCC[C@@H](CO)C2)c(=O)n1` (racemic): the concentration for a half-maximal effect (EC50) is above 200 µM in the assay with Coxsackievirus and 62 µM in the assay on Human alphaherpesvirus 1.

`Cc1cn([C@H]2C=CC[C@@H](CO)C2)c(=O)[nH]c1=O` (racemic): the results for the concentration for a half-maximal effect (EC50) with Coxsackievirus and in the assay with Human alphaherpesvirus 1 were above 200 µM and 63 µM, respectively.

`Nc1ncnc2c1ncn2[C@H]1C=CC[C@@H](CO)C1` (racemic): the EC50 with Coxsackievirus and in the assay on Human alphaherpesvirus 1 was above 200 µM each time.

With `Nc1ncnc2c1ncn2[C@H]1CCC[C@@H](CO)C1` (racemic), the EC50 in the assay on Coxsackievirus and in the assay with Human alphaherpesvirus 1 was above 200 µM each time.

In the assay with Human alphaherpesvirus 1, `Nc1nc2c(ncn2COCCO)c(=O)[nH]1` [ACYCLOVIR] gave an EC50 of 0.32 µM.

For the molecule `Nc1nc(O)c2ncn([C@H]3C=CC[C@@H](CO)C3)c2n1` (racemic), the 50% effective concentration (EC50) with Coxsackievirus and in the assay with Human alphaherpesvirus 1 was above 200 µM in each case.

On to `Cc1cn([C@H]2CCC[C@@H](CO)C2)c(=O)[nH]c1=O` (racemic), for which the EC50 with Coxsackievirus was 168 µM; in the assay on Human alphaherpesvirus 1 it was above 200 µM.

As for `Nc1ccn([C@H]2C=CC[C@@H](CO)C2)c(=O)n1` (racemic), the EC50 with Coxsackievirus and in the assay on Human alphaherpesvirus 1 was above 200 µM throughout.
